{"source": "patent US11083716B2", "about": "(Achieve Life Sciences, Inc., priority 2019, dated 2021)", "key": {"[1]": {"biological_target": "alpha4, beta2 (α4β2) receptors (Homo sapiens, UniProt P17787+P43681)", "sequence (P43681 29-627 limits assumed)": "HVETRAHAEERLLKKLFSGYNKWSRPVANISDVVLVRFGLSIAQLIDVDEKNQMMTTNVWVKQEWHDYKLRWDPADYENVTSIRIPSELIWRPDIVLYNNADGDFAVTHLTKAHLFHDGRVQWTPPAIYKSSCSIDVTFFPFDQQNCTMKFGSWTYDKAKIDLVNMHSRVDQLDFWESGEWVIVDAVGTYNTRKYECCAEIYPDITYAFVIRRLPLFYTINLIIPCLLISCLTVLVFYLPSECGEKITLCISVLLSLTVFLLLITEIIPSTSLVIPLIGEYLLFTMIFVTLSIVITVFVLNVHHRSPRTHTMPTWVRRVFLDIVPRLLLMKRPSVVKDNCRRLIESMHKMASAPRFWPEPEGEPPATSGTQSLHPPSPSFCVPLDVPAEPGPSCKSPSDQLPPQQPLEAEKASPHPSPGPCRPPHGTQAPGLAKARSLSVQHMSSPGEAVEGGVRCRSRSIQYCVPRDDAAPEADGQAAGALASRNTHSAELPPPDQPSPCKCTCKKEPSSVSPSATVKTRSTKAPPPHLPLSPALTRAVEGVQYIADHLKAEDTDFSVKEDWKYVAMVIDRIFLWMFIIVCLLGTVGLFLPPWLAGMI", "sequence (P17787 26-502)": "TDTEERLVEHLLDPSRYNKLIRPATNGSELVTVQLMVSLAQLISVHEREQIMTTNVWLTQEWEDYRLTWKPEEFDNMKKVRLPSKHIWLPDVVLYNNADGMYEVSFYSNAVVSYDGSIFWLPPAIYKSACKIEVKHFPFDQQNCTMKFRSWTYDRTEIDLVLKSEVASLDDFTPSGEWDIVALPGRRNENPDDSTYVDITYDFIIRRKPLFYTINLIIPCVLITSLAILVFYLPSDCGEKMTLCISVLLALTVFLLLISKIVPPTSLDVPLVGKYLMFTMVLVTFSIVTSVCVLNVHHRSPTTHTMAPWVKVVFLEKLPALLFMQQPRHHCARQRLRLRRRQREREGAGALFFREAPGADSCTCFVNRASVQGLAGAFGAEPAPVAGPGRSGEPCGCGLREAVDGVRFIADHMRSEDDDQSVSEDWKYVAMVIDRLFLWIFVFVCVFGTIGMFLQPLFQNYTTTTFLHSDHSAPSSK", "conditions": "cited from earlier work"}, "[2]": {"system": "adults smoking 10+ cigarettes daily", "experimental": "This was a six-arm, multi-center, double-blind, randomized, placebo-controlled study conducted in male or female adults years of age, smoking 10+ cigarettes daily, and willing to set a quit date that is 5-7 days after randomization. […] The study also evaluated the effectiveness of a simplified TID dosing schedule for 1.5 mg and an increased dose of 3.0 mg (using both the commercial titration (COM) and simplified TID dosing schedules).\nStudy treatment started the day after randomization such that study treatment was initiated prior to the quit date, as shown in FIG. 3.\nThe primary efficacy endpoint for this study was the percent reduction in the number of cigarettes smoked during treatment, which was calculated as follows:\n[formula] where N=total number of cigarettes smoked, B=number of cigarettes smoked at baseline and D=number of days.\nThe primary outcome (Cigarette Score) and the main secondary abstinence outcomes were subjected to sensitivity analyses. The main secondary abstinence outcomes were the initial quit rate at Week 4 and continued 4-week abstinence through Week 5 to Week 8, confirmed by expired CO of <10 ppm designated as Cess/W5-8/CO Success.\nThe primary outcome was based on the number of cigarettes smoked on each day from a diary. The Cigarette Score used the diary data for the planned 25 days while on study treatment. Presented are sensitivity analyses for the comparison of the 3.0 mg TID arm and the pooled placebo arm related to variations on the primary analysis of Cigarette Score. The alternative definition of the Cigarette Score featured cigarettes recorded in the diary after the planned quit period of Days 5-7, that is, from Day 8 onward, instead of from Day 1 onward.\nAnother alterative analysis was based on re-analyses of the primary Cigarette Score and the above alternative Cigarette Score, with a weight related to the standard error of the mean number of cigarettes estimated from the diary entries. The weight used for each subject was 1/(SE)^2, where SE is the standard error of the mean estimate, and this type of weighting, referred to as inverse variance weighting, is used commonly. This weighting gives greater weight to means that are estimated with a smaller SE. A small modification to this definition of weight was necessary, however. In computing 1/(SE)^2, a specific rule was used when SE=0, specifically when all diary entry values were equal. In these cases, the SE was computed as if one and only one of the recorded values was larger by one. It can be shown that when this modification to the data is made SE=1/N, where N is the number of the subjects daily (days) entries."}, "[3]": {"system": "smokers", "conditions": "cited from earlier work"}, "[4]": {"conditions": "Cochrane (n > 7000); cited from earlier work"}, "[5]": {"system": "smokers", "conditions": "cited from earlier work", "remark": "listed apart in the source"}, "[6]": {"conditions": "1.5 mg Downward Titration (n = 51)"}, "[7]": {"conditions": "3.0 mg Downward Titration (n = 50)"}, "[8]": {"conditions": "end of treatment, 12 weeks (EAGLES)"}}, "note": "Like-named read-outs stand apart in the source and are kept apart here.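 Wherever TEAE: Abnormal dreams, subjects n (%) is given: multicenter double-blind randomized placebo-controlled trial in adult smokers of 10 or more cigarettes per day, counting subjects with treatment-emergent adverse events per arm.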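 Wherever TEAE: At least 1 AE, subjects n (%) is given: multicenter double-blind randomized placebo-controlled trial in adult smokers of 10 or more cigarettes per day, counting subjects with treatment-emergent adverse events per arm.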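 Wherever TEAE: Fatigue, subjects n (%) is given: multicenter double-blind randomized placebo-controlled trial in adult smokers of 10 or more cigarettes per day, counting subjects with treatment-emergent adverse events per arm.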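 Wherever TEAE: Headache, subjects n (%) is given: multicenter double-blind randomized placebo-controlled trial in adult smokers of 10 or more cigarettes per day, counting subjects with treatment-emergent adverse events per arm.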"}
{"smiles": "O=c1cccc2n1C[C@@H]1CNC[C@H]2C1", "note": "[cytisine, (−)-Cytisine]", "values": [{"measurement": "binding to receptor subtype", "setting": "[1]", "value": "bind strongly and preferentially"}, {"measurement": "Reduction in CO (expired)", "setting": "[2]; 1.5 mg TID", "value": 71, "unit": "%"}, {"measurement": "Reduction in CO (expired)", "setting": "[2]; 1.5 mg, titration (COM) schedule", "value": 78, "unit": "%"}, {"measurement": "Reduction in CO (expired)", "setting": "[2]; 3.0 mg TID", "value": 80, "unit": "%"}, {"measurement": "OR, quit rate versus placebo", "setting": "[2]; 3.0 mg TID, 4 weeks off treatment, Table 11", "value": 5.0}, {"measurement": "OR, quit rate versus placebo", "setting": "[2]; 3.0 mg TID, end of treatment (4 weeks), Tables 9-10", "value": 6.3}, {"measurement": "Reduction in CO (expired)", "setting": "[2]; 3.0 mg, titration (COM) schedule", "value": 71, "unit": "%"}, {"measurement": "serum cotinine levels", "setting": "[2]; all cytisine-treated arms, Week 4", "value": "material reduction"}, {"measurement": "Cigarette Score effect estimate (95% confidence interval), 3.0 mg TID versus pooled placebo", "setting": "[2]; weighted analysis, diary from start of intervention", "value": "−11.8 (−24.4, 0.9)"}, {"measurement": "TEAE: Abnormal dreams, subjects n (%)", "setting": "[6]", "value": "4 (8%)"}, {"measurement": "TEAE: At least 1 AE, subjects n (%)", "setting": "[6]", "value": "29 (57%)"}, {"measurement": "TEAE: Fatigue, subjects n (%)", "setting": "[6]", "value": "1 (2%)"}, {"measurement": "TEAE: Headache, subjects n (%)", "setting": "[6]", "value": "1 (2%)"}, {"measurement": "TEAE: Insomnia, subjects n (%)", "setting": "[6]", "value": "3 (6%)"}, {"measurement": "TEAE: Nausea, subjects n (%)", "setting": "[6]", "value": "5 (10%)"}, {"measurement": "TEAE: URTI, subjects n (%)", "setting": "[6]", "value": "3 (6%)"}, {"measurement": "TEAE: Abnormal dreams, subjects n (%)", "setting": "1.5 mg TID (n = 52)", "value": "4 (8%)"}, {"measurement": "TEAE: At least 1 AE, subjects n (%)", "setting": "1.5 mg TID (n = 52)", "value": "20 (39%)"}, {"measurement": "TEAE: Constipation, subjects n (%)", "setting": "1.5 mg TID (n = 52)", "value": "1 (2%)"}, {"measurement": "TEAE: Fatigue, subjects n (%)", "setting": "1.5 mg TID (n = 52)", "value": "3 (6%)"}, {"measurement": "TEAE: Headache, subjects n (%)", "setting": "1.5 mg TID (n = 52)", "value": "6 (12%)"}, {"measurement": "TEAE: Insomnia, subjects n (%)", "setting": "1.5 mg TID (n = 52)", "value": "4 (8%)"}, {"measurement": "TEAE: Nausea, subjects n (%)", "setting": "1.5 mg TID (n = 52)", "value": "1 (2%)"}, {"measurement": "TEAE: URTI, subjects n (%)", "setting": "1.5 mg TID (n = 52)", "value": "5 (10%)"}, {"measurement": "overall safety following dosing", "setting": "1.5 mg or 3.0 mg treatment arms on both schedules", "value": "no safety concerns"}, {"measurement": "TEAE: Abnormal dreams, subjects n (%)", "setting": "[7]", "value": "7 (14%)"}, {"measurement": "TEAE: At least 1 AE, subjects n (%)", "setting": "[7]", "value": "23 (46%)"}, {"measurement": "TEAE: Fatigue, subjects n (%)", "setting": "[7]", "value": "2 (4%)"}, {"measurement": "TEAE: Headache, subjects n (%)", "setting": "[7]", "value": "1 (2%)"}, {"measurement": "TEAE: Insomnia, subjects n (%)", "setting": "[7]", "value": "4 (8%)"}, {"measurement": "TEAE: Nausea, subjects n (%)", "setting": "[7]", "value": "3 (6%)"}, {"measurement": "TEAE: URTI, subjects n (%)", "setting": "[7]", "value": "2 (4%)"}, {"measurement": "TEAE: Abnormal dreams, subjects n (%)", "setting": "3.0 mg TID (n = 50)", "value": "3 (6%)"}, {"measurement": "TEAE: At least 1 AE, subjects n (%)", "setting": "3.0 mg TID (n = 50)", "value": "21 (42%)"}, {"measurement": "TEAE: Constipation, subjects n (%)", "setting": "3.0 mg TID (n = 50)", "value": "3 (6%)"}, {"measurement": "TEAE: Fatigue, subjects n (%)", "setting": "3.0 mg TID (n = 50)", "value": "1 (2%)"}, {"measurement": "TEAE: Headache, subjects n (%)", "setting": "3.0 mg TID (n = 50)", "value": "2 (4%)"}, {"measurement": "TEAE: Insomnia, subjects n (%)", "setting": "3.0 mg TID (n = 50)", "value": "3 (6%)"}, {"measurement": "TEAE: Nausea, subjects n (%)", "setting": "3.0 mg TID (n = 50)", "value": "3 (6%)"}, {"measurement": "TEAE: URTI, subjects n (%)", "setting": "3.0 mg TID (n = 50)", "value": "3 (6%)"}, {"measurement": "Serious AEs", "setting": "ORCA-1, pooled Cytisinicline (n = 203)", "value": 0}, {"measurement": "TEAE: Abnormal dreams, subjects n (%)", "setting": "Pooled Cytisinicline (n = 203)", "value": "18 (9%)"}, {"measurement": "TEAE: At least 1 AE, subjects n (%)", "setting": "Pooled Cytisinicline (n = 203)", "value": "93 (46%)"}, {"measurement": "TEAE: Constipation, subjects n (%)", "setting": "Pooled Cytisinicline (n = 203)", "value": "4 (2%)"}, {"measurement": "TEAE: Fatigue, subjects n (%)", "setting": "Pooled Cytisinicline (n = 203)", "value": "7 (3%)"}, {"measurement": "TEAE: Headache, subjects n (%)", "setting": "Pooled Cytisinicline (n = 203)", "value": "10 (5%)"}, {"measurement": "TEAE: Insomnia, subjects n (%)", "setting": "Pooled Cytisinicline (n = 203)", "value": "14 (7%)"}, {"measurement": "TEAE: Nausea, subjects n (%)", "setting": "Pooled Cytisinicline (n = 203)", "value": "12 (6%)"}, {"measurement": "TEAE: URTI, subjects n (%)", "setting": "Pooled Cytisinicline (n = 203)", "value": "13 (6%)"}]}
{"smiles": "c1cnc2cc3c(cc2n1)[C@@H]1CNC[C@H]3C1", "note": "[Chantix ®, varenicline]", "values": [{"measurement": "Drug-placebo difference in quit rate", "setting": "[3]; 4 weeks off treatment (EAGLES)", "value": 20.7, "unit": "%"}, {"measurement": "OR, quit rate versus placebo", "setting": "[3]; 4 weeks off treatment (EAGLES)", "value": 3.5}, {"measurement": "Quit Rate at End of Treatment", "setting": "[3]; 12 weeks (EAGLES)", "value": 38.0, "unit": "%"}, {"measurement": "CAR weeks 9-24 % (95% CI)", "setting": "[3]; Region Non-U.S.", "value": "27.9 (25.2-30.8) %"}, {"measurement": "Versus placebo OR (95% CI), CAR weeks 9-24", "setting": "[3]; Region Non-U.S.", "value": "2.80 (2.20-3.55)"}, {"measurement": "Versus placebo OR (95% CI), CAR weeks 9-24", "setting": "[3]; Region U.S.", "value": "2.66 (1.99-3.55)"}, {"measurement": "CAR weeks 9-24 % (95% CI)", "setting": "[3]; Region U.S., listed as Chantix®", "value": 16, "unit": "%"}, {"measurement": "CAR weeks 9-24 % (95% CI)", "setting": "[3]; Region U.S., listed as Varenicline", "value": "16.1 (14.0-18.4) %"}, {"measurement": "overall quit rate at 24 weeks", "setting": "[3]; all regions (EAGLES)", "value": 22, "unit": "%"}, {"measurement": "Drug-placebo difference in quit rate", "setting": "[3]; [8]", "value": 24.3, "unit": "%"}, {"measurement": "OR, quit rate versus placebo", "setting": "[3]; [8]", "value": 4.0}, {"measurement": "Quit Rate at 4 Weeks Off Treatment", "setting": "[3]; sustained quit (EAGLES)", "value": 33.2, "unit": "%"}, {"measurement": "Abnormal dreams", "setting": "[4]", "value": 12.5, "unit": "%"}, {"measurement": "Headache", "setting": "[4]", "value": 12.7, "unit": "%"}, {"measurement": "Insomnia", "setting": "[4]", "value": 14.2, "unit": "%"}, {"measurement": "Nausea", "setting": "[4]", "value": 27.8, "unit": "%"}, {"measurement": "Serious AEs", "setting": "[4]", "value": 3.3, "unit": "%"}, {"measurement": "Quit Rate at 4 Weeks Treatment", "setting": "[5]; 4 weeks (ONCKEN)", "value": 37.7, "unit": "%"}, {"measurement": "Drug-placebo difference in quit rate", "setting": "[5]; 4 weeks treatment (ONCKEN)", "value": 21.4, "unit": "%"}, {"measurement": "OR, quit rate versus placebo", "setting": "[5]; 4 weeks treatment (ONCKEN)", "value": 3.1}]}
{"smiles": "CN1CCCC1c1cccnc1", "note": "(stereo not shown) [nicotine, Nicotine, reference compound]", "values": [{"measurement": "binding to receptor subtype", "setting": "[1]", "value": "bind strongly and preferentially"}]}
